Assay results as given in the supplement of paper PMC6580486.

Legend:
PCB-495 = tested on: PCB-495 (human epithelioid sarcoma primary culture)
Method: (§1)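 60-agent targeted drug screens (Drug Screen V3 on epithelioid sarcoma cultures PCB490-3/4/5, PCB495, EPS cell lines ESX, VA-ES-BJ, FU-EPS-1 and SkMc myoblasts; PPTI screen v2.1 on human UPS PCB197 and canine UPS S1-12). 384-well plates, 72 h, CellTiter-Glo viability; IC50 by Hill curve fit. 10000 nM = no IC50 achieved (top reported value).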

PCB-490-3 = tested on: PCB-490-3 (human epithelioid sarcoma primary culture)
Method: as §1

PCB-490-4 = tested on: PCB-490-4 (human epithelioid sarcoma primary culture)
Method: as §1

SkMc = tested on: SkMc
Method: as §1

ESX = tested on: ESX
Method: as §1

PCB-490-5 = tested on: PCB-490-5 (human epithelioid sarcoma primary culture)
Method: as §1

VA-ES-BJ = tested on: VA-ES-BJ
Method: as §1

FU-EPS-1 = tested on: FU-EPS-1
Method: as §1

s1-12 = tested on: s1-12 (canine undifferentiated pleomorphic sarcoma culture)
Method: as §1

pcb-00197 = tested on: pcb-00197 (human undifferentiated pleomorphic sarcoma culture)
Method: as §1

With `Nc1nc2c(ncn2COC(CO)CO)c(=O)[nH]1` [Ganciclovir] the IC50 cell viability (PCB-495) was over 10 µM, the IC50 cell viability (PCB-490-3) was over 10 µM and the IC50 cell viability (PCB-490-4) was over 10 µM. The IC50 cell viability (SkMc) was over 10 µM, the IC50 cell viability (ESX) was over 10 µM and the IC50 cell viability (PCB-490-5) was over 10 µM. The IC50 cell viability (VA-ES-BJ) was over 10 µM and the IC50 cell viability (FU-EPS-1) was 0.02 µM.

With `Cn1c(=O)n(-c2ccc(C(C)(C)C#N)cc2)c2c3cc(-c4cnc5ccccc5c4)ccc3ncc21` [BEZ235] the IC50 cell viability (PCB-495) was 0.43 µM, the IC50 cell viability (PCB-490-3) was 1.36 µM and the IC50 cell viability (PCB-490-4) was 0.26 µM. For the same molecule, the IC50 cell viability (SkMc) was 0.37 µM, the IC50 cell viability (ESX) was 0.02 µM and the IC50 cell viability (PCB-490-5) was 0.2 µM. The IC50 cell viability (VA-ES-BJ) was 0.08 µM and the IC50 cell viability (FU-EPS-1) was 0.14 µM.

In the case of `N#CC[C@H](C1CCCC1)n1cc(-c2ncnc3[nH]ccc23)cn1` [Ruxolitinib], the IC50 cell viability (PCB-495) is reported as over 10 µM, the IC50 cell viability (PCB-490-3) is reported as over 10 µM and the IC50 cell viability (PCB-490-4) is reported as over 10 µM. For the same molecule, the IC50 cell viability (SkMc) was over 10 µM, the IC50 cell viability (ESX) was over 10 µM and the IC50 cell viability (PCB-490-5) was over 10 µM. It also gave an IC50 cell viability (VA-ES-BJ) of over 10 µM and an IC50 cell viability (FU-EPS-1) of over 10 µM.

In the case of `CO[C@H]1C[C@@H]2CC[C@@H](C)[C@@](O)(O2)C(=O)C(=O)N2CCCC[C@H]2C(=O)O[C@H]([C@H](C)C[C@@H]2CC[C@@H](OC(=O)C(C)(CO)CO)[C@H](OC)C2)CC(=O)[C@H](C)/C=C(\C)[C@@H](O)[C@@H](OC)C(=O)[C@H](C)C[C@H](C)/C=C/C=C/C=C/1C` [temsirolimus], the IC50 cell viability (s1-12) is reported as over 10 µM and the IC50 cell viability (pcb-00197) is reported as over 10 µM.

With `CC(=O)c1c(C)c2cnc(Nc3ccc(N4CCNCC4)cn3)nc2n(C2CCCC2)c1=O` the IC50 cell viability (PCB-495) was over 10 µM, the IC50 cell viability (PCB-490-3) was over 10 µM and the IC50 cell viability (PCB-490-4) was over 10 µM. It also gave an IC50 cell viability (SkMc) of over 10 µM, an IC50 cell viability (ESX) of over 10 µM and an IC50 cell viability (PCB-490-5) of over 10 µM. It also gave an IC50 cell viability (VA-ES-BJ) of over 10 µM and an IC50 cell viability (FU-EPS-1) of over 10 µM.

`CNC(=O)c1cc(Oc2ccc(NC(=O)Nc3ccc(Cl)c(C(F)(F)F)c3)cc2)ccn1` [sorafenib] was tested, and the IC50 cell viability (s1-12) was 6.43 µM and the IC50 cell viability (pcb-00197) was over 10 µM.

In the case of `CS(=O)(=O)c1ccc(C(=O)Nc2ccc(Cl)c(-c3ccccn3)c2)c(Cl)c1` [vismodegib], the IC50 cell viability (s1-12) is reported as 2.75 µM and the IC50 cell viability (pcb-00197) is reported as over 10 µM.

`O=C1NC(=O)C(c2cnc3ccccn23)=C1c1cn2c3c(cc(F)cc13)CN(C(=O)N1CCCCC1)CC2` showed an IC50 cell viability (PCB-495) of over 10 µM, an IC50 cell viability (PCB-490-3) of over 10 µM and an IC50 cell viability (PCB-490-4) of over 10 µM. For the same molecule, the IC50 cell viability (SkMc) was 0.2 µM, the IC50 cell viability (ESX) was 1.52 µM and the IC50 cell viability (PCB-490-5) was over 10 µM. For the same molecule, the IC50 cell viability (VA-ES-BJ) was over 10 µM and the IC50 cell viability (FU-EPS-1) was over 10 µM.

`CC(C)N(CCCNC(=O)Nc1ccc(C(C)(C)C)cc1)C[C@H]1O[C@@H](n2cc(Br)c3c(N)ncnc32)[C@H](O)[C@@H]1O` [SGC0946] gave an IC50 cell viability (PCB-495) of 0.6 µM, an IC50 cell viability (PCB-490-3) of over 10 µM and an IC50 cell viability (PCB-490-4) of over 10 µM. For the same molecule, the IC50 cell viability (SkMc) was 0.1 µM, the IC50 cell viability (ESX) was 0.62 µM and the IC50 cell viability (PCB-490-5) was over 10 µM. The IC50 cell viability (VA-ES-BJ) was 0.49 µM and the IC50 cell viability (FU-EPS-1) was 1.48 µM.

In the case of `COc1cccc(OCCCN)c1-c1cc(Nc2cnc(C#N)cn2)n[nH]1`, the IC50 cell viability (PCB-495) is reported as 3.17 µM, the IC50 cell viability (PCB-490-3) is reported as over 10 µM and the IC50 cell viability (PCB-490-4) is reported as over 10 µM. The IC50 cell viability (SkMc) was 1.29 µM, the IC50 cell viability (ESX) was 0.23 µM and the IC50 cell viability (PCB-490-5) was over 10 µM. It also gave an IC50 cell viability (VA-ES-BJ) of 0.69 µM and an IC50 cell viability (FU-EPS-1) of over 10 µM.

`CN(C)CC[C@H](CSc1ccccc1)Nc1ccc(S(=O)(=O)NC(=O)c2ccc(N3CCN(Cc4ccccc4-c4ccc(Cl)cc4)CC3)cc2)cc1[N+](=O)[O-]` [ABT 737] showed an IC50 cell viability (s1-12) of 1.06 µM and an IC50 cell viability (pcb-00197) of over 10 µM.

`COc1cc2c(Oc3ccc4[nH]c(C)cc4c3F)ncnc2cc1OCCCN1CCCC1` [cediranib] was tested, and the IC50 cell viability (s1-12) was over 10 µM and the IC50 cell viability (pcb-00197) was over 10 µM.

`Nc1nc(Nc2ccc(S(N)(=O)=O)cc2)nn1C(=S)Nc1c(F)cccc1F` [Cdk1/2 inhibitor III] was tested, and the IC50 cell viability (PCB-495) was 0.42 µM, the IC50 cell viability (PCB-490-3) was 1.41 µM and the IC50 cell viability (PCB-490-4) was 1.02 µM. For the same molecule, the IC50 cell viability (SkMc) was 0.29 µM, the IC50 cell viability (ESX) was 0.2 µM and the IC50 cell viability (PCB-490-5) was 1.1 µM. For the same molecule, the IC50 cell viability (VA-ES-BJ) was 0.13 µM and the IC50 cell viability (FU-EPS-1) was over 10 µM.

With `CS(=O)(=O)CCNCc1ccc(-c2ccc3ncnc(Nc4ccc(OCc5cccc(F)c5)c(Cl)c4)c3c2)o1` [lapatinib] the IC50 cell viability (s1-12) was over 10 µM and the IC50 cell viability (pcb-00197) was over 10 µM.

For `CO[C@H]1C[C@@H]2CC[C@@H](C)[C@@](O)(O2)C(=O)C(=O)N2CCCC[C@H]2C(=O)O[C@H]([C@H](C)C[C@@H]2CC[C@@H](O)[C@H](OC)C2)CC(=O)[C@H](C)/C=C(\C)[C@@H](O)[C@@H](OC)C(=O)[C@H](C)C[C@H](C)/C=C/C=C/C=C/1C` [Sirolimus], the IC50 cell viability (PCB-495) was over 10 µM, the IC50 cell viability (PCB-490-3) was over 10 µM and the IC50 cell viability (PCB-490-4) was over 10 µM. For the same molecule, the IC50 cell viability (SkMc) was 0.29 µM, the IC50 cell viability (ESX) was over 10 µM and the IC50 cell viability (PCB-490-5) was over 10 µM. The IC50 cell viability (VA-ES-BJ) was over 10 µM and the IC50 cell viability (FU-EPS-1) was over 10 µM.

Molecule `CN[C@@H](C)C(=O)N[C@H](C(=O)N1CCC[C@H]1c1nc(C(=O)c2ccc(F)cc2)cs1)C1CCCCC1` [LCL161] has an IC50 cell viability (PCB-495) of over 10 µM, an IC50 cell viability (PCB-490-3) of over 10 µM and an IC50 cell viability (PCB-490-4) of over 10 µM. For the same molecule, the IC50 cell viability (SkMc) was over 10 µM, the IC50 cell viability (ESX) was 1.8 µM and the IC50 cell viability (PCB-490-5) was over 10 µM. It also gave an IC50 cell viability (VA-ES-BJ) of 3.15 µM and an IC50 cell viability (FU-EPS-1) of over 10 µM.

For `C[C@@H](Oc1cc(-c2cnn(C3CCNCC3)c2)cnc1N)c1c(Cl)ccc(F)c1Cl` [crizotinib], the IC50 cell viability (s1-12) was 1.18 µM and the IC50 cell viability (pcb-00197) was 1.53 µM.

With `CN1CCN(CCOc2cc(OC3CCOCC3)c3c(Nc4c(Cl)ccc5c4OCO5)ncnc3c2)CC1` [Saracatinib] the IC50 cell viability (s1-12) was 1.51 µM and the IC50 cell viability (pcb-00197) was over 10 µM.

`CC1=C(/C=C/C(C)=C/C=C/C(C)=C/C(=O)Nc2ccc(O)cc2)C(C)(C)CCC1` [Fenretinide] was tested, and the IC50 cell viability (s1-12) was 1.84 µM and the IC50 cell viability (pcb-00197) was over 10 µM.

`Nc1ncn([C@H]2C[C@H](O)[C@@H](CO)O2)c(=O)n1` [decitabine] was tested, and the IC50 cell viability (s1-12) was 0.33 µM and the IC50 cell viability (pcb-00197) was over 10 µM.

`CN(C)c1ccccc1CN1CCCN(Cc2ccccc2N(C)C)C1c1ccncc1` [GANT61] gave an IC50 cell viability (s1-12) of over 10 µM and an IC50 cell viability (pcb-00197) of over 10 µM.

`Cn1cc(C2=C(c3cn(C4CCN(Cc5ccccn5)CC4)c4ccccc34)C(=O)NC2=O)c2ccccc21` [enzastaurin] gave an IC50 cell viability (s1-12) of over 10 µM and an IC50 cell viability (pcb-00197) of over 10 µM.

For `Nc1cccc2c1CN(C1CCC(=O)NC1=O)C2=O` (centres undefined) [Lenalidomide], the IC50 cell viability (s1-12) was 2.85 µM and the IC50 cell viability (pcb-00197) was over 10 µM.

Molecule `COc1nc(C)cnc1NS(=O)(=O)c1cccnc1-c1ccc(-c2nnco2)cc1` [zibotentan] has an IC50 cell viability (s1-12) of over 10 µM and an IC50 cell viability (pcb-00197) of over 10 µM.

For `COc1cc(Nc2ncc3c(n2)-c2ccc(Cl)cc2C(c2c(F)cccc2OC)=NC3)ccc1C(=O)O` [MLN8237], the IC50 cell viability (s1-12) was 0.98 µM and the IC50 cell viability (pcb-00197) was 2.74 µM.

For `CC(C)(C)c1cnc(CSc2cnc(NC(=O)C3CCNCC3)s2)o1` [SNS-032], the IC50 cell viability (s1-12) was 0.11 µM and the IC50 cell viability (pcb-00197) was 0.78 µM.

`CC(C)C[C@H](NC(=O)[C@H](Cc1ccccc1)NC(=O)c1cnccn1)B(O)O` [bortezomib] gave an IC50 cell viability (s1-12) of 4.69 µM and an IC50 cell viability (pcb-00197) of 4.83 µM.

For `CCCC(=O)[O-].[Na+]` [sodium butyrate], the IC50 cell viability (s1-12) was 1.57 µM and the IC50 cell viability (pcb-00197) was over 10 µM.

In the case of `NC(=O)c1ccc(-c2nc(-c3ccccn3)c(-c3ccc4c(c3)OCO4)[nH]2)cc1`, the IC50 cell viability (U23674) is reported as over 10 µM, the IC50 cell viability (s1-12) is reported as over 10 µM and the IC50 cell viability (pcb-00197) is reported as over 10 µM.

Molecule `C[C@]1(c2nc3c(C(N)=O)cccc3[nH]2)CCCN1` [veliparib] has an IC50 cell viability (s1-12) of over 10 µM and an IC50 cell viability (pcb-00197) of over 10 µM.

With `NC1(c2ccc(-c3nc4ccn5c(=O)[nH]nc5c4cc3-c3ccccc3)cc2)CCC1` [MK-2206] the IC50 cell viability (s1-12) was 1.09 µM and the IC50 cell viability (pcb-00197) was over 10 µM.

Molecule `Cc1cc(Nc2cc(N3CCN(C)CC3)nc(Sc3ccc(NC(=O)C4CC4)cc3)n2)n[nH]1` [tozasertib] has an IC50 cell viability (s1-12) of over 10 µM and an IC50 cell viability (pcb-00197) of over 10 µM.

With `Oc1c2ccccc2c2c3c(cccc13)N=N2` the IC50 cell viability (s1-12) was 1.36 µM and the IC50 cell viability (pcb-00197) was over 10 µM.

`CN(c1ncccc1CNc1nc(Nc2ccc3c(c2)CC(=O)N3)ncc1C(F)(F)F)S(C)(=O)=O` gave an IC50 cell viability (s1-12) of 1.42 µM and an IC50 cell viability (pcb-00197) of 4.56 µM.
